Read-outs that look alike come from different tables or passages of the source.
Assays:
Type in all cases: cell-based
[1] = tested on: Wnt signaling pathway (Top-Flash reporter gene); experiment: Top-Flash Wnt reporter gene assay in HEK293T cells with Wnt3a conditioned medium; conditions: Homo sapiens, HEK-293T, 6 h, 6 h
Procedure, shortened: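 HEK293T transfected with TOP-flash (5 ng/well) plus GFP plasmid for normalization, then treated 6 h with mouse Wnt3a conditioned medium from L cells, with or without compound. GFP-normalized luciferase minus DMSO-only background, scaled to Wnt-induced activity; IC50 at 0.5 relative residual activity from 4-parameter logistic fit.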

[2] = tested on: HL-60 (human promyelocytic leukemia cells); experiment: MTT inhibition of tumor cell growth, HL-60; conditions: Homo sapiens
Procedure, shortened: (§1)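 Seed 5000-10000 cells/well (adherent lines 12 h ahead); add compound at 40 μM or, for hits near 50% inhibition, 5 concentrations; incubate 48 h at 37° C; add MTT 4 h, dissolve in 10% SDS overnight; read 595 nm; derive IC50 by Reed-Muench.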

[3] = tested on: MCF-7 (human breast cancer cells); experiment: MTT inhibition of tumor cell growth, MCF-7; conditions: Homo sapiens
Procedure, shortened: as §1

[4] = tested on: SMMC-7721 (human hepatoma cells); experiment: MTT inhibition of tumor cell growth, SMMC-7721; conditions: Homo sapiens
Procedure, shortened: as §1

[5] = tested on: A-549 (Human lung adenocarcinoma cells); experiment: MTT inhibition of tumor cell growth, A-549; conditions: Homo sapiens
Procedure, shortened: as §1

[6] = tested on: SW-480 (human colon cancer cells); experiment: MTT inhibition of tumor cell growth, SW-480; conditions: Homo sapiens
Procedure, shortened: as §1

[7] = Table 9, HEK293T, Wnt3a conditioned medium, read-out: IC50(μM), inhibitory activity on the Wnt signaling pathway
[8] = HL-60, 48 h, Table 5, derivatives having double Michael reaction acceptor
[9] = MCF7, 48 h, Table 5, derivatives having double Michael reaction acceptor
[10] = SMMC-7721, 48 h, Table 5, derivatives having double Michael reaction acceptor
[11] = A549, 48 h, Table 5, derivatives having double Michael reaction acceptor
[12] = SW480, 48 h, Table 5, derivatives having double Michael reaction acceptor, read-out: IC50 SW-480
[13] = SW480, 48 h, Table 6, double Michael reaction acceptor derivatives, read-out: IC50 SW-480, derivatives having double Michael reaction acceptor
[14] = read-out: IC50 (μM), inhibitory activity on the Wnt signaling pathway
[15] = Table 7 (second), derivatives modified on 7-hydroxyl of S-3, HEK293T, Wnt3a conditioned medium, read-out: IC50 (μM), inhibitory activity on the Wnt signaling pathway
[16] = HL-60, 48 h, Table 1, 7-hydroxy derivatives of S-3
[17] = MCF7, 48 h, Table 1, 7-hydroxy derivatives of S-3
[18] = SMMC-7721, 48 h, Table 1, 7-hydroxy derivatives of S-3
[19] = A549, 48 h, Table 1, 7-hydroxy derivatives of S-3
[20] = SW480, 48 h, Table 1, 7-hydroxy derivatives of S-3, read-out: IC50 SW-480

Structure (SMILES): C=C1C(=O)C23CC[C@@H](CC2[C@@]24CCC[C@@](C)(COS(=O)OC2)C14)C(=C)C3=O (stereo partly drawn) [Compound 43]
- IC50 [1, 7]: 12.8 ± 0.13 µM
- IC50 [2, 8]: 0.68 µM
- IC50 [3, 9]: 0.78 µM
- IC50 [4, 10]: 0.16 µM
- IC50 [5, 11]: 0.58 µM
- IC50 [6, 12]: 0.59 µM
- IC50 [6, 13]: 0.34 µM

Structure (SMILES): C=C1C(=O)[C@]23CC[C@H]1CC2[C@@]12CCC[C@@]4(C)C(=O)N[C@@H]1O[C@@H]3CC24 (stereo partly drawn) [Compound 84]
- IC50 [1, 14]: 60.6 ± 3.09 µM
- IC50 ([2]; HL-60, Table 7 (first), alkaloid derivatives, 48 h): 18.6 µM
- IC50 ([3]; MCF7, Table 7 (first), alkaloid derivatives, 48 h): 15.7 µM
- IC50 ([4]; SMMC-7721, Table 7 (first), alkaloid derivatives, 48 h): 15.7 µM
- IC50 ([5]; A549, Table 7 (first), alkaloid derivatives, 48 h): 19 µM
- IC50 ([6]; SW480, Table 7 (first), alkaloid derivatives, 48 h, read-out: IC50 SW-480): 14.2 µM

Structure (SMILES): C=C1C(=O)C23CC[C@H]1CC2[C@@]12CCC[C@@](C)(COC1=O)C2C[C@H]3OS(=O)(=O)Cc1ccccc1 (stereo partly drawn) [Compound 1r]
- IC50 [1, 15]: 8.92 ± 0.98 µM
- IC50 [2, 16]: 0.58 µM
- IC50 [3, 17]: 2.06 µM
- IC50 [4, 18]: 0.57 µM
- IC50 [5, 19]: 0.49 µM
- IC50 [6, 20]: 1.17 µM

Structure (SMILES): C=C1C(=O)C23CC[C@H]1CC2[C@]1(COS(C)(=O)=O)CCC[C@@](C)(COS(C)(=O)=O)C1C[C@H]3O (stereo partly drawn) [Compound 72a]
- IC50 ([1]; Table 8, HEK293T, Wnt3a conditioned medium, read-out: IC50 (μM), inhibitory activity on the Wnt signaling pathway): 12.6 ± 1.04 µM
- IC50 ([2]; HL-60, 48 h, Table 4, derivatives obtained by reduction of the lactonic ring): 1.37 µM
- IC50 ([3]; MCF7, 48 h, Table 4, derivatives obtained by reduction of the lactonic ring): 1.55 µM
- IC50 ([4]; SMMC-7721, 48 h, Table 4, derivatives obtained by reduction of the lactonic ring): 0.93 µM
- IC50 ([5]; A549, 48 h, Table 4, derivatives obtained by reduction of the lactonic ring): 1.86 µM
- IC50 ([6]; SW480, 48 h, Table 4, derivatives obtained by reduction of the lactonic ring, read-out: IC50 SW-480): 1.85 µM
- IC50 ([6]; SW480, 48 h, Table 6, 7-hydroxyl derivatives and controls, read-out: IC50 SW-480, 7-hydroxyl derivatives): 2.23 µM

Structure (SMILES): C=C1C(=O)[C@]23CC[C@H]1CC2[C@@]12CCC[C@@](C)(C(=O)N4CCO[C@H]41)C2C[C@H]3O (stereo partly drawn) [Compound 78]
- IC50 ([1]; Table 11, HEK293T, Wnt3a conditioned medium, read-out: IC50 (μM), inhibitory activity on the Wnt signaling pathway): 28.7 ± 0.97 µM
- IC50 ([2]; HL-60, 48 h, Table 7 (first), alkaloid derivatives): 2.73 µM
- IC50 ([3]; MCF7, 48 h, Table 7 (first), alkaloid derivatives): 1.12 µM
- IC50 ([4]; SMMC-7721, 48 h, Table 7 (first), alkaloid derivatives): 2.63 µM
- IC50 ([5]; A549, 48 h, Table 7 (first), alkaloid derivatives): 3.09 µM
- IC50 ([6]; SW480, 48 h, Table 7 (first), alkaloid derivatives, read-out: IC50 SW-480): 2.81 µM

Structure (SMILES): C=C1C(=O)[C@]23CC[C@H]1CC2[C@@]12CCC[C@@](C)(COC1)C2[C@H](COS(C)(=O)=O)C3=O (stereo partly drawn) [Compound 32]
- IC50 ([1]; Table 10, HEK293T, Wnt3a conditioned medium, read-out: IC50 (μM), inhibitory activity on the Wnt signaling pathway): 19.8 ± 1.04 µM
- IC50 ([2]; HL-60, 48 h, Table 2, derivatives having potential Michael reaction acceptor): 3.45 µM
- IC50 ([3]; MCF7, 48 h, Table 2, derivatives having potential Michael reaction acceptor): 2.02 µM
- IC50 ([4]; SMMC-7721, 48 h, Table 2, derivatives having potential Michael reaction acceptor): 3.12 µM
- IC50 ([5]; A549, 48 h, Table 2, derivatives having potential Michael reaction acceptor): 2.22 µM
- IC50 ([6]; SW480, 48 h, Table 2, derivatives having potential Michael reaction acceptor, read-out: IC50 SW-480): 1.58 µM

Structure (SMILES): C=C1C(=O)[C@@]23CC[C@@H](CC2[C@@]24CCC[C@@](C)(CO[C@H]2OC)C14)C(=C)C3=O (stereo partly drawn) [Compound 23]
- IC50 [1, 7]: 6.72 ± 1.11 µM
- IC50 [2, 8]: 0.51 µM
- IC50 [3, 9]: 0.24 µM
- IC50 [4, 10]: 0.15 µM
- IC50 [5, 11]: 0.2 µM
- IC50 [6, 12]: 0.39 µM
- IC50 [6, 13]: 0.79 µM

Structure (SMILES): C=C1C(=O)[C@]23CC[C@H]1CC2[C@@]12CCC[C@@](C)(COC1=O)C2C[C@H]3OC(C)=O (stereo partly drawn) [Compound 1b]
- IC50 [1, 15]: 14.2 ± 0.67 µM
- IC50 [2, 16]: 1.46 µM
- IC50 [3, 17]: 3.48 µM
- IC50 [4, 18]: 3.6 µM
- IC50 [5, 19]: 2.83 µM
- IC50 [6, 20]: 3.44 µM

Structure (SMILES): C=C1C(=O)C23CC[C@H]1CC2[C@@]12CCC[C@@](C)(COC1=O)C2C[C@H]3OC(=O)c1cccs1 (stereo partly drawn) [Compound 1o]
- IC50 [1, 14]: 9.15 ± 1.14 µM
- IC50 ([2]; HL-60, Table 1, 7-hydroxy derivatives of S-3, 48 h): 0.84 µM
- IC50 ([3]; MCF7, Table 1, 7-hydroxy derivatives of S-3, 48 h): 1.26 µM
- IC50 ([4]; SMMC-7721, Table 1, 7-hydroxy derivatives of S-3, 48 h): 0.6 µM
- IC50 ([5]; A549, Table 1, 7-hydroxy derivatives of S-3, 48 h): 0.49 µM
- IC50 ([6]; SW480, Table 1, 7-hydroxy derivatives of S-3, 48 h, read-out: IC50 SW-480): 0.56 µM

Structure (SMILES): C=C1C(=O)C23CC[C@H]1CC2[C@@]12CCC[C@@](C)(COC1=O)C2C[C@H]3OC(=O)[C@@H](C)Cl (stereo partly drawn) [Compound 1i]
- IC50 [1, 15]: 28.3 ± 2.76 µM
- IC50 [2, 16]: 3.37 µM
- IC50 [3, 17]: 2.58 µM
- IC50 [4, 18]: 3.35 µM
- IC50 [5, 19]: 2.59 µM
- IC50 [6, 20]: 2.5 µM

— patent US10112918B2, “15-oxospiramilactone derivatives, preparation method and uses thereof” (Kunming Institute of Botany, The Chinese Academy of Sciences, priority 2013, dated 2018)
